Laboratory results as given in patent US20230210861A1 (priority 2020, published 2023).
“And” between values parts separate entries of the source, which are not always exact repeats. Equal values may be shown once. “Also recorded” adds a separate entry of the source. Where a name gives a salt, the structure may show the parent alone.

How the values were obtained:
human alpha7 nAChR [1] = target: T1, human alpha7 nAChR (Homo sapiens, UniProt P36544); assay: Agonist activity at human alpha7 nAChR expressed in Xenopus oocytes (two-electrode voltage clamp); type: cell-based; settings: for agonist character at nAChR alpha7: in words
Source text: (§1) Agonist Preparation: See Example 1.

[2] = target: nAChR subtype alpha3beta2 (Homo sapiens, UniProt P17787+P32297); settings: in words; no experiment described; cited from earlier work
human alpha3beta4 nAChR [3] = target: T2, human alpha3beta4 nAChR (Homo sapiens, UniProt P30926+P32297); assay: Agonist activity at human alpha3beta4 nAChR expressed in Xenopus oocytes (two-electrode voltage clamp); type: cell-based; settings: for agonist character at nAChR alpha3beta4: in words
Source text: as §1

[4] = target: T3, human alpha3alpha5beta4 nAChR (Homo sapiens, UniProt P30926+P32297); assay: Agonist activity at human alpha3alpha5beta4 nAChR expressed in Xenopus oocytes (two-electrode voltage clamp); settings: for agonist character at nAChR alpha3alpha5beta4: in words; for EC50: EC50 at nAChR alpha3alpha5beta4, test concentrations 0.1-300 uM
Description: (§2) All experiments were carried out at human nAChRs expressed in Xenopus oocytes using the method of cDNA expression. Xenopus oocytes were prepared and injected using standard procedures.
Briefly, ovaries were harvested from Xenopus Laevis females that have been deeply anesthetized by cooling at 4° C. and Tricaine methanesulfonate (MS-222 at a concentration of 150 mg/L) in sodium bicarbonate (300 mg/L). Once anesthetized the animal was decapitated and pithed following the rules of animal rights from the Geneva canton. A small piece of ovary was isolated for immediate preparation while the remaining part was placed at 4° C. in a sterile Barth solution containing in mM NaCl 88, KCl 1, NaHCO3 2.4, HEPES 10, MgSO4·7H2O 0.82, Ca(NO3)2·4H2O 0.33, CaCl2·6H2O 0.41, at pH 7.4, and supplemented with 20 ug/ml of kanamycin, 100 unit/ml penicillin. All recordings were performed at 18° C. and cells superfused with OR2 medium containing in mM: NaCl 88, KCl 2.5, HEPES 5, CaCl2·2H2O 1.8, MgCl2·6H2O 1, pH 7.4.
(§3) Currents evoked by ACh or other agonists were recorded using an automated process equipped with standard two-electrode voltage-clamp configuration (TEVC). Data were captured and analyzed using a HiQScreen proprietary data acquisition and analysis software running under Matlab (Mathworks Inc.).
ACh was prepared as a concentrated stock solution (10^−1M) in water and then diluted in the recording medium to obtain the desired test concentration. Compounds were dissolved in OR2 as stock solution (1 mM) and the final dilution to the desired concentration was made on the day of the experiment. OR2 medium contains in mM: NaCl 88.5, KCl 2.5, HEPES 5, CaCl2·2H2 1.8, MgCl2·6H2 1, pH 7.4.
The test concentration of acetylcholine chloride was 1280 uM.
(§4) Injections of cDNAs encoding for the human alpha3beta4, alpha3alpha5beta4, alpha4beta2, and alpha7 were performed in at least 95 oocytes were performed using a proprietary automated injection and receptor expression examined at least two days later. Oocytes were poked with two electrodes and their membrane potential maintained, unless indicated, at −80 mV throughout the experiment.
A protocol to determine agonistic activity in the oocytes expressing the nAChRs was developed. The cells were exposed to a series of increasing concentrations of a compound agonist for 10 seconds each at two minute intervals. The current evoked from exposure to the agonist at each concentration was recorded. For oocytes expressing alpha7 nAChRs, exposure to the agonist was reduced to 5 seconds. This process was repeated for each agonist tested against each type of nAChR expressing cell.
Experimental Procedures: Injections of cDNAs encoding for the human alpha3beta4, alpha3alpha5beta4, alpha4beta2, alpha4alpha6beta2, and alpha7 were performed in at least 95 oocytes using a proprietary automated injection device. Cellular receptor expression was examined at least two days later. Oocytes were poked with two electrodes and their membrane potential maintained, unless indicated, at −80 mV throughout the experiment.
A protocol to determine agonistic activity in the oocytes expressing the nAChRs was developed. Oocytes expressing a nAChR subtype were exposed to a brief test pulse of acetylcholine (1280 uM) while the holding current and response was evaluated. Cells displaying robust currents were washed for 90 seconds. The cells were then exposed to a series of increasing concentrations of a nAChR agonist for 10 seconds each at two minute intervals. The nAChR agonist test concentrations were 0.1, 0.3, 1, 3, 10, 30, 100, 300 (uM). The current evoked from exposure to the agonist at each concentration was recorded.

[5] = target: human alpha4alpha6beta2 nAChR (Homo sapiens, UniProt P17787+P43681+Q15825); assay: Agonist activity at human alpha4alpha6beta2 nAChR expressed in Xenopus oocytes (two-electrode voltage clamp); type: cell-based; settings: for agonist character at nAChR alpha4alpha6beta2: in words
Source text: as §1

human alpha4beta2 nAChR [6] = target: T4, human alpha4beta2 nAChR (Homo sapiens, UniProt P17787+P43681); assay: Agonist activity at human alpha4beta2 nAChR expressed in Xenopus oocytes (two-electrode voltage clamp); type: cell-based; settings: for agonist character at nAChR alpha4beta2: in words; for effect on the subsequent ACh-evoked current, alpha4beta2: after the agonist concentration series
Source text: as §1

[7] = Pharmacokinetics in human subjects after 28 days of intranasal administration of Compound 1 hemigalactarate salt (Example 5); type: in vivo
Description: Blood plasma for the patients was collected on Day 29 predose (time 0) and after a series of time points (10 min, 20 min, 30 min, 1 hr, 2 hrs, 4 hrs, 5 hrs, 6 hrs, 7 hrs, 8 hrs, and 24 hrs) after a single administration of drug. The blood plasma was analyzed for Compound 1.
The following pharmacokinetic parameters for Compound 1 were calculated: • Cmax: Maximum observed concentration, observed by inspection of individual study participant plasma concentration time plots. • Tmax: Time of maximum observed concentration, obtained directly from the observed concentration time data. • AUClast: The area under the plasma concentration time curve, from time 0 to the last measurable non-zero concentration, calculated by a combination of linear and logarithmic trapezoidal methods (Linear up/log down method). • AUC0-4 h: The area under the plasma concentration time curve, from time 0 to the 4 h time point, calculated by a combination of linear and logarithmic trapezoidal methods (Linear up/log down method). • AUCinf: The area from zero time (pre-dose) extrapolated to infinite time (AUCinf) will be calculated as follows: AUCinf=AUClast+Cz/λz • AUC % Extrap: The percentage of AUCinf obtained by extrapolation (AUC % Extrap) will be calculated as follows: […]

human alpha7 nAChR [8] = target: T1, human alpha7 nAChR; assay: Desensitization / antagonistic activity, cumulative exposure in the low concentration range, alpha7 in Xenopus oocytes; type: cell-based; settings: concentrations up to 300 nM; in words; dihydrate
Description: as §2, §3, §4

[9] = target: T3, human alpha3alpha5beta4 nAChR; assay: Desensitization / antagonistic activity, cumulative exposure in the low concentration range, alpha3alpha5beta4 in Xenopus oocytes; type: cell-based; settings: concentrations up to 300 nM; in words; dihydrate
human alpha3beta4 nAChR [10] = target: T2, human alpha3beta4 nAChR; assay: Desensitization / antagonistic activity, cumulative exposure in the low concentration range, alpha3beta4 in Xenopus oocytes; type: cell-based; settings: concentrations up to 300 nM, in words
human alpha4beta2 nAChR [11] = target: T4, human alpha4beta2 nAChR; assay: Desensitization / antagonistic activity, cumulative exposure in the low concentration range, alpha4beta2 in Xenopus oocytes; type: cell-based; settings: concentrations up to 300 nM; in words; dihydrate
SARS-CoV-2 = assay: Infection of Caco-2 cells after exposure to SARS-CoV-2 (plaque titration of supernatant); settings: for percentage of Caco-2 cells infected with SARS-CoV-2, concentration dependence: 24 hours after exposure, MOI of 3, versus vehicle control, in words
Caco-2 cells = assay: Caco-2 cell viability, CellTiter-Glo assay; type: cell-based, human
Description: In parallel, cell viability in the presence of varenicline tartrate and/or copper chloride was determined using CellTiter-Glo assay (Promega), which measures intracellular adenosine triphosphate levels.
Cells treated with DMSO (solvent control) served as controls. Following incubation, […] of CellTiter-Glo substrate was added to each well and the samples were incubated for 10 min on a rocking platform. Following this 10 min incubation, luminescence was recorded using a POLAR star OPTIMA plate reader (BMG Labtech). Samples were run in triplicate and data is normalized with mean luminescence of DMSO only treated cells as 100% viability.
All statistical analyses were performed using GraphPad Prism (version 9, GraphPad Software, Inc.).

[12] = target: nAChR subtype alpha6beta2 (Homo sapiens, UniProt P17787+Q15825); settings: in words; no experiment described; cited from earlier work
human alpha3beta4 nAChR [13] = target: T2, human alpha3beta4 nAChR; assay: Sustained exposure to 300 uM varenicline tartrate and its recovery, alpha3beta4; type: cell-based; settings: 300 uM applied during three minutes; in words
[14] = listed as Compound 1 citrate, mono-citrate
[15] = listed as Compound 1 hemi-galactarate dihydrate, dihydrate
[16] = test concentrations 0.1-300 uM, ACh 1280 uM reference

Sequence of human alpha4alpha6beta2 nAChR (P43681 29-627 limits assumed): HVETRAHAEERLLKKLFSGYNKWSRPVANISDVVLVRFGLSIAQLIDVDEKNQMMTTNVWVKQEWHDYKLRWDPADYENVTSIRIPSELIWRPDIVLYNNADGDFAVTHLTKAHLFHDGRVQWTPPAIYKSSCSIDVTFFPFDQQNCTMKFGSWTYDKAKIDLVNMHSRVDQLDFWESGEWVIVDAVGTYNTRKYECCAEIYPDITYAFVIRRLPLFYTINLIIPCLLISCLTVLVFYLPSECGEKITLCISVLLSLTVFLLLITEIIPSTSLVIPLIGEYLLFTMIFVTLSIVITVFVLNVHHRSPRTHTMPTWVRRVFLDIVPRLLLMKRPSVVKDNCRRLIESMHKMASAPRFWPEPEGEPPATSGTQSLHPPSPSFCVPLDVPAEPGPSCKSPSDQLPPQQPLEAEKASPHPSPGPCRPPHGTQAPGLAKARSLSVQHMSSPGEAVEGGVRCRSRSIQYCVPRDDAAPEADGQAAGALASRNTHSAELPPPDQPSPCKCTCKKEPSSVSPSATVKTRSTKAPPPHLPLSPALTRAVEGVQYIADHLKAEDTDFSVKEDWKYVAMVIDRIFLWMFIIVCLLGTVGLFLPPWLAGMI
Sequence of human alpha4alpha6beta2 nAChR (Q15825 26-494): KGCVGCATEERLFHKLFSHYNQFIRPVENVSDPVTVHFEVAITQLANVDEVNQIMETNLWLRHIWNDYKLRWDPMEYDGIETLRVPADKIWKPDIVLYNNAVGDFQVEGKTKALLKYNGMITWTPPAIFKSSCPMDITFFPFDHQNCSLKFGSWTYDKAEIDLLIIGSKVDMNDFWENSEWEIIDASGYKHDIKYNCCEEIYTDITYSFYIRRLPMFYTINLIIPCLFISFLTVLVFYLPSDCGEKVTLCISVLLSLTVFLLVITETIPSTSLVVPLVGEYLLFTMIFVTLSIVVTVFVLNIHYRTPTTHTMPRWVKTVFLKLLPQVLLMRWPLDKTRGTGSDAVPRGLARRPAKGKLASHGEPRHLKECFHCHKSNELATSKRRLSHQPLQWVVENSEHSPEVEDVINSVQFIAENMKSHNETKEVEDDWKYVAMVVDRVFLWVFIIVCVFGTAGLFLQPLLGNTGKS
Sequence of human alpha4alpha6beta2 nAChR (P17787 26-502): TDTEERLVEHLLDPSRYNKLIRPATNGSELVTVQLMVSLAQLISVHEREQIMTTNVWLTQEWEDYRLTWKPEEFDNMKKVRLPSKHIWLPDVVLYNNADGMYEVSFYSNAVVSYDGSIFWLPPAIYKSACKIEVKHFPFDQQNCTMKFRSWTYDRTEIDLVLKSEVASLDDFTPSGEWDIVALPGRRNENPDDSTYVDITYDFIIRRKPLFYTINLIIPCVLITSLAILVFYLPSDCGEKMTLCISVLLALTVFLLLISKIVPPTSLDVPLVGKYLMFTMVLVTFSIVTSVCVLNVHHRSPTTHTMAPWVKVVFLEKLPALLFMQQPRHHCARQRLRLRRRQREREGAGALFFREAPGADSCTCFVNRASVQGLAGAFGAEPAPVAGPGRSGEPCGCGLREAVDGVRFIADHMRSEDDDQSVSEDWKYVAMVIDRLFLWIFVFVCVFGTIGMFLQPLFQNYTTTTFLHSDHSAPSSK
T4 sequence (P43681 29-627 limits assumed): as the sequence (P43681 29-627 limits assumed) above
T4 sequence (P17787 26-502): as the sequence (P17787 26-502) above
T1 sequence (P36544 23-502): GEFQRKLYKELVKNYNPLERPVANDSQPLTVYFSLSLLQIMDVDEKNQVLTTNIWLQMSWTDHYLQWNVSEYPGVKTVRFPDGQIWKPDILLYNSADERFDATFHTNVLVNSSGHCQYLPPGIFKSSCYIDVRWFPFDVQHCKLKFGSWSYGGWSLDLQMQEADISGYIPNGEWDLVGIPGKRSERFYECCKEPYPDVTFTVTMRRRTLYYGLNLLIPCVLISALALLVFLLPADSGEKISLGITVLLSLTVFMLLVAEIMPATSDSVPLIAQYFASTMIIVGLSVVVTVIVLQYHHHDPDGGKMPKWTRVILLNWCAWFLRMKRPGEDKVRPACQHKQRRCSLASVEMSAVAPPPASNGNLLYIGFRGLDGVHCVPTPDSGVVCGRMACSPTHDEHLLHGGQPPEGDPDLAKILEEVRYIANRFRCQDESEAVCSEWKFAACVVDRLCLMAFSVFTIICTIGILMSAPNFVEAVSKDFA
T3 sequence (P32297 32-505): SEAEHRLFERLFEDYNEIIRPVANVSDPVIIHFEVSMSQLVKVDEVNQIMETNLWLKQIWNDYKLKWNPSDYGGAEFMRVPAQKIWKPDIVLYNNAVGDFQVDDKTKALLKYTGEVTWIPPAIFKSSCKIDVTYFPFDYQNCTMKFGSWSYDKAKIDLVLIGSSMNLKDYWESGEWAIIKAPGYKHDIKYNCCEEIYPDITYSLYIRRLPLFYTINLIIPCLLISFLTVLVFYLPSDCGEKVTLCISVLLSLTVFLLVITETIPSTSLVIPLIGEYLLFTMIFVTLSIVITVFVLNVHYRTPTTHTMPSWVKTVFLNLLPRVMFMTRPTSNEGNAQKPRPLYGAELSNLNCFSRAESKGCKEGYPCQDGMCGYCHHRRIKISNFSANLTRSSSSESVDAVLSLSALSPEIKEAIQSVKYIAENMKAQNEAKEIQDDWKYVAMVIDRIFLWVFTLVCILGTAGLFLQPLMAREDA
T3 sequence (P30532 23-468 partner): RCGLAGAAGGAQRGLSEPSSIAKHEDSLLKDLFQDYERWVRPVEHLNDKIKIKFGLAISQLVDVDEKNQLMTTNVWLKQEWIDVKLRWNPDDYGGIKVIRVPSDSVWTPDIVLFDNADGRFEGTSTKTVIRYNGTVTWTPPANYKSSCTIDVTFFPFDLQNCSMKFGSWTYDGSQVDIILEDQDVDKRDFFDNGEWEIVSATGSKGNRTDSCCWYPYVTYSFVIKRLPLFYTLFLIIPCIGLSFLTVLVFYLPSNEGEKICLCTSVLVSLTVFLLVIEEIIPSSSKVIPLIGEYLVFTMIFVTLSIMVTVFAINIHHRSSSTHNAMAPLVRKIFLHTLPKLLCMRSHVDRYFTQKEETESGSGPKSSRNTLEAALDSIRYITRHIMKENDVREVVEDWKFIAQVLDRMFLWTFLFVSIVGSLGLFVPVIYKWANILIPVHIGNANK
T3 sequence (P30926 22-498): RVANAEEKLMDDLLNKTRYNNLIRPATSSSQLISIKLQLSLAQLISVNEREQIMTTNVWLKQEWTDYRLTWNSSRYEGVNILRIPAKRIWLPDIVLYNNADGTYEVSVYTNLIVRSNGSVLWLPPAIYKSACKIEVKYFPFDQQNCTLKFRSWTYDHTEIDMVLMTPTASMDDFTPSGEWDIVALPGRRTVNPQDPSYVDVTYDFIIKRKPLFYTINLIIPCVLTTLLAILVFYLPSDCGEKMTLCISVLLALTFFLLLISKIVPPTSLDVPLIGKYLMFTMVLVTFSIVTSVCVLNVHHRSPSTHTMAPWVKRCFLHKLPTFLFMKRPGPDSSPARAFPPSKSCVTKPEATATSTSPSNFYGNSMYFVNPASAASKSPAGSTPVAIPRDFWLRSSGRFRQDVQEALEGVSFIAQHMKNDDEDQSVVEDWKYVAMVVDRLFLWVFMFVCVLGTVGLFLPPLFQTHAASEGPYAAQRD
T2 sequence (P32297 32-505): as the sequence (P32297 32-505) above
T2 sequence (P30926 22-498): as the sequence (P30926 22-498) above
Sequence of nAChR subtype alpha6beta2 (Q15825 26-494): as the sequence (Q15825 26-494) above
Sequence of nAChR subtype alpha6beta2 (P17787 26-502): as the sequence (P17787 26-502) above
Sequence of nAChR subtype alpha3beta2 (P32297 32-505): as the sequence (P32297 32-505) above
Sequence of nAChR subtype alpha3beta2 (P17787 26-502): as the sequence (P17787 26-502) above

C(=C\[C@H]1CCNC1)/c1cncnc1 [Compound 1, (R)-5-((E)-2-pyrrolidin-3-ylvinyl)pyrimidine]
agonist character at nAChR alpha7 (human alpha7 nAChR [1]): full agonist; also recorded: weak partial agonist | agonist character at nAChR alpha3beta2 [2]: partial agonist | agonist character at nAChR alpha3beta4 (human alpha3beta4 nAChR [3]): full agonist | agonist character at nAChR alpha3alpha5beta4 [4]: full agonist | agonist character at nAChR alpha4alpha6beta2 [5]: full agonist | agonist character at nAChR alpha4beta2 (human alpha4beta2 nAChR [6]): full agonist | AUC % Extrap, Max ([7]; Day 29, N=7): 41.1% | AUC % Extrap, Mean ([7]; Day 29, N=7): 21.3% | AUC % Extrap, Median ([7]; Day 29, N=7): 23.3% | AUC % Extrap, Min ([7]; Day 29, N=7): 3.69% and 3.67% | detection in plasma ten minutes after administration ([7]; Day 29, 7 subjects): detected in plasma from all subjects | fraction cleared from systemic circulation before the next administration ([7]; if administered every 12 hours (4 half-lives), from maximum half-life 2.83 h): > 94%

C(=C\[C@H]1CCNC1)/c1cncnc1 [compound 1 citrate, (R)-5-((E)pyrrolidin-3-ylvinyl)pyrimidine mono-citrate]
current evoked at 300 uM, percent of the maximal ACh-evoked current, alpha7 (human alpha7 nAChR [1]; [14]): 25% | current evoked at 300 uM, percent of the maximal ACh-evoked current, alpha7 (human alpha7 nAChR [1]; mono-citrate): 25% | agonist character at nAChR alpha7 (human alpha7 nAChR [1]; [14]): poor agonist | agonist character at nAChR alpha7 (human alpha7 nAChR [1]; mono-citrate): weak partial agonist | agonist character at nAChR alpha3beta4 (human alpha3beta4 nAChR [3]; [14]): almost as a full agonist | EC50 ([4]; ACh 1280 uM reference): 83 ± 9.05 µM | agonist character at nAChR alpha3alpha5beta4 [4, 14]: almost as a full agonist | agonist character at nAChR alpha4alpha6beta2 [5, 14]: almost as a full agonist | effect on the subsequent ACh-evoked current, alpha4beta2 (human alpha4beta2 nAChR [6]; mono-citrate): Significant inhibition of the current evoked by the second Ach exposure | agonist character at nAChR alpha4beta2 (human alpha4beta2 nAChR [6]; [14]): almost as a full agonist

C(=C\[C@H]1CCNC1)/c1cncnc1 [compound 1 hemi-galactarate dihydrate, (R)-5-((E)-2-pyrrolidin-3-ylvinyl)pyrimidine hemigalactarate dihydrate]
current evoked at 300 uM, percent of the maximal ACh-evoked current, alpha7 (human alpha7 nAChR [1]; dihydrate): 24% | agonist character at nAChR alpha7 (human alpha7 nAChR [1]; dihydrate): poor agonist | agonist character at nAChR alpha7 (human alpha7 nAChR [1]; [15]): more potent agonist than ACh | inhibition of ACh-evoked current on sustained exposure, alpha7 (human alpha7 nAChR [8]): insensitive; also recorded: no significant inhibition | inhibition of ACh-evoked current on sustained exposure, alpha3alpha5beta4 [9]: marked inhibition; also recorded: inhibits in a concentration-dependent manner | agonist character at nAChR alpha3beta4 (human alpha3beta4 nAChR [3]; [15]): almost as a full agonist | current evoked, percent of the maximal ACh-evoked currents, alpha3beta4 (human alpha3beta4 nAChR [3]; maximal response): about 94% | EC50 ([4]; ACh 1280 uM reference): 32.1 ± 2.16 µM | agonist character at nAChR alpha3alpha5beta4 [4, 15]: almost as a full agonist | current evoked, percent of the maximal ACh-evoked currents, alpha3alpha5beta4 ([4]; maximal response): about 94% | effect on the subsequent ACh-evoked current, alpha4beta2 (human alpha4beta2 nAChR [6]; dihydrate): enhanced the subsequent ACh-evoked currents | agonist character at nAChR alpha4beta2 (human alpha4beta2 nAChR [6]; [15]): more potent agonist than ACh | evoked currents larger than the maximal ACh responses, alpha4beta2 (human alpha4beta2 nAChR [6]; relative to maximal ACh response): about 2 fold | inhibition of ACh-evoked current on sustained exposure, alpha3beta4 (human alpha3beta4 nAChR [10]; dihydrate): insensitive; also recorded: no significant inhibition | inhibition of ACh-evoked current on sustained exposure, alpha4beta2 (human alpha4beta2 nAChR [11]): marked inhibition; also recorded: inhibits in a concentration-dependent manner

[Cl][Cu][Cl] [copper chloride]
percentage of Caco-2 cells infected with SARS-CoV-2, concentration dependence (SARS-CoV-2): dose-dependent decrease | cellular viability at 72 hours post-drug exposure (Caco-2 cells; copper chloride concentrations of less than 1 uM): no significant impact on cellular viability | cellular viability at 72 hours post-drug exposure (Caco-2 cells; exposures greater than 1 uM copper chloride): Some cellular toxicity

c1cnc2cc3c(cc2n1)[C@@H]1CNC[C@H]3C1 [varenicline]
agonist character at nAChR alpha7 (human alpha7 nAChR [1]): full agonist | agonist character at nAChR alpha6beta2 [12]: partial agonist | agonist character at nAChR alpha3beta4 (human alpha3beta4 nAChR [3]): partial agonist | agonist character at nAChR alpha3alpha5beta4 [4]: partial agonist | effect on the subsequent ACh-evoked current, alpha4alpha6beta2 ([5]; after the agonist concentration series): significant inhibition of the subsequent ACh-evoked current | response compared to the ACh response, alpha4alpha6beta2 ([5]; concentrations from 0.1 uM to 300 uM): ≤ 6% | agonist character at nAChR alpha4alpha6beta2 [5]: weak partial agonist | agonist character at nAChR alpha4beta2 (human alpha4beta2 nAChR [6]): partial agonist

varenicline tartrate [reference compound]
current evoked by sustained exposure, alpha3beta4 (human alpha3beta4 nAChR [13]): larger current amplitude; also recorded: rather large response | agonist character at nAChR alpha3beta4 (human alpha3beta4 nAChR [3]): partial agonist | EC50 at nAChR alpha3beta4 (human alpha3beta4 nAChR [3]; [16]): low micromolar range | agonist character at nAChR alpha3alpha5beta4 [4]: partial agonist | EC50 at nAChR alpha3alpha5beta4 [4, 16]: low micromolar range | infection rate of the cells without copper chloride (SARS-CoV-2; 0.1 uM and 0.5 uM varenicline tartrate, 24 hours, MOI 3, normalized to untreated (FIG. 3)): ~100% | percentage of Caco-2 cells infected with SARS-CoV-2, concentration dependence (SARS-CoV-2): dose-dependent decrease | effect on the subsequent ACh-evoked current, alpha4beta2 (human alpha4beta2 nAChR [6]): major inhibition of the subsequent ACh-evoked current | agonist character at nAChR alpha4beta2 (human alpha4beta2 nAChR [6]): partial agonist | agonist character at nAChR alpha4beta2 (human alpha4beta2 nAChR [6]; listed as Varenicline tartrate): very poor agonist | EC50 at nAChR alpha4beta2 (human alpha4beta2 nAChR [6]; [16]): low micromolar range | cellular viability at 72 hours post-drug exposure (Caco-2 cells; even at 100 uM varenicline tartrate): no significant impact on cellular viability | inhibition of ACh-evoked current on sustained exposure, alpha3beta4 (human alpha3beta4 nAChR [10]): very modest effect; also recorded: no significant inhibition
